The values that follow are results of earlier work, collected in patent publication US20240180871A1, “MODIFIED-RELEASE SILODOSIN COMPOSITIONS AND USE THEREOF IN METHODS FOR MALE CONTRACEPTION” (PHARMAJOR INCORPORATED, priority 2022, published 2024).

Where two headings read alike, the source gives them in different places.

`CC(Cc1cc2c(c(C(N)=O)c1)N(CCCO)CC2)NCCOc1ccccc1OCC(F)(F)F` (centres unmarked) [silodosin, 1-(3-hydroxypropyl)-5-[2-[[2-[2-(2,2,2-trifluoroethoxy)phenoxy]ethyl]amino]propyl]indoline-7-carboxamide]: the “effect on semen in male subjects” value in the data set on male subjects (during BPH treatment, in some cases, KOBAYASHI 2009, SAKATA 2012) is given as “causing aspermia, azoospermia, or severe oligozoospermia”. For the same compound, the “sex-related adverse effects associated with administration” value in the data set on male subjects (known in the art) was “discomfort upon ejaculation, decrease in the quality of orgasm, decrease in erectile function, and reduction of sexual desire”.

Consider `C[C@H](Cc1cc2c(c(C(N)=O)c1)N(CCCO)CC2)NCCOc1ccccc1OCC(F)(F)F` [(R)-silodosin, (−)-(R)-1-(3-hydroxypropyl)-5-[2-[[2-[2-(2,2,2-trifluoroethoxy)phenoxy]ethyl]amino]propyl]indoline-7-carboxamide], for which the solubility entry is “very soluble” (in acetic acid), “freely soluble” (in alcohol) and “very slightly soluble” (in water).
